From PubChem BioAssay (NCI)
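In this assay, cells in 96-well plates receive the compound at five concentrations for 48 hours. Endpoints are linearly interpolated between the surrounding concentrations. TGI: concentration producing complete growth inhibition.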

Experiments:
Assay in all cases: DTP human tumour cell line panel, 48 h
[1] = system: OVCAR-5 ovarian
[2] = system: HCT-15 colon
[3] = system: UACC-62 melanoma
[4] = system: SR leukemia
[5] = system: ACHN renal
[6] = system: MOLT-4 leukemia
[7] = system: COLO 205 colon
[8] = system: IGROV1 ovarian
[9] = system: HL-60(TB) leukemia
[10] = system: HOP-92 NSCLC
[11] = system: UACC-257 melanoma
[12] = system: SF-539 CNS
[13] = system: SW-620 colon
[14] = system: NCI-H226 lung
[15] = system: DU-145 prostate
[16] = system: SK-MEL-5 melanoma
[17] = system: SNB-19 CNS
[18] = system: TK-10 renal
[19] = system: A498 renal

Row | Structure (SMILES) | TGI [1] [µM] | TGI [2] [µM] | TGI [3] [µM] | TGI [4] [µM] | TGI [5] [µM] | TGI [6] [µM] | TGI [7] [µM] | TGI [8] [µM] | TGI [9] [µM] | TGI [10] [µM] | TGI [11] [µM] | TGI [12] [µM] | TGI [13] [µM] | TGI [14] [µM] | TGI [15] [µM] | TGI [16] [µM] | TGI [17] [µM] | TGI [18] [µM] | TGI [19] [µM]
1 | NC(N)=NS(=O)(=O)c1ccc(NNc2c3ccccc3nc3c(C(=O)Nc4ccc(S(=O)(=O)N=C(N)N)cc4)cccc23)cc1 | > 100 | > 100 | > 100 | > 100 | > 100 | 80.4 | > 100 | > 100 | 88.8 | > 100 | > 100 | > 100 | > 100 | > 100 | > 100 | > 100 | > 100 | > 100 | –
2 | COC(=O)c1ccccc1C1CN=NC12Cc1ccccc1C2=O (centres undefined) | > 100 | > 100 | > 100 | > 100 | > 100 | > 100 | > 100 | > 100 | > 100 | > 100 | > 100 | > 100 | > 100 | > 100 | > 100 | > 100 | > 100 | > 100 | –
3 | C=CC1CCC[N+]1(CC(=O)OCC)Cc1ccccc1 (centres undefined) | > 100 | > 100 | > 100 | > 100 | > 100 | > 100 | > 100 | > 100 | > 100 | > 100 | > 100 | – | > 100 | > 100 | > 100 | > 100 | > 100 | > 100 | > 100
4 | COc1ccc2nccc(SCC(=O)O)c2c1 | > 100 | > 100 | > 100 | > 100 | > 100 | > 100 | – | > 100 | > 100 | > 100 | > 100 | – | > 100 | > 100 | > 100 | > 100 | > 100 | > 100 | > 100
5 | c1ccc(N=C(Nc2ccccc2)N2CCCC2)cc1 | > 100 | > 100 | > 100 | > 100 | > 100 | > 100 | > 100 | > 100 | > 100 | > 100 | > 100 | – | > 100 | > 100 | > 100 | > 100 | > 100 | > 100 | –
6 | COc1cccc2c1CCc1cc3c(N)nc(N)nc3nc1-2 | 21.3 | 23.4 | 16.7 | > 34.5 | 36.5 | > 100 | 29.8 | 17.2 | – | 32.6 | 31.4 | 9.16 | 25 | 43.2 | 23.8 | 10.2 | 26.7 | 47.3 | 32.9
7 | CN(C)CCCNc1ccc2c(=O)n(CCN(C)C)c(=O)n3c4ccccc4c(=O)c1c23 | 1.89 | 1.13 | 1.56 | 2.96 | 1.47 | – | 1.22 | 4.33 | – | 7.79 | 2.05 | 2.02 | – | 2.53 | 0.511 | 2.19 | 3.02 | 2.28 | 5.35
8 | CCCCCCCCCCCCN1[C@H]2CCC[C@H]2C(O)[C@@H]2CCC[C@@H]21 (some centres undefined) | > 100 | > 100 | > 100 | > 100 | > 100 | > 100 | > 100 | > 100 | > 100 | > 100 | > 100 | – | > 100 | > 100 | > 100 | > 100 | > 100 | – | > 100
9 | Nc1nc(Cl)c(/C=N\O)c(NCC2(CO)CCC2)n1 | > 100 | > 100 | – | > 100 | > 100 | 81.2 | > 100 | – | – | > 100 | > 100 | > 100 | > 100 | > 100 | > 100 | > 100 | > 100 | > 100 | > 100
10 | CC[C@H](Nc1c(O)c2c(c(O)c1Cl)C(=O)C=CC2=O)C(=O)OC | > 10 | > 10 | > 10 | 7.74 | > 10 | 9.57 | > 10 | > 10 | 8.64 | > 10 | > 10 | 9.29 | > 10 | > 10 | > 10 | > 10 | > 10 | > 10 | –
11 | CCN(CC)c1ccc2cc(C(N)=S)c(=N)oc2c1 | > 100 | > 100 | > 100 | > 100 | > 100 | > 100 | > 100 | > 100 | > 100 | > 100 | > 100 | > 100 | > 100 | > 100 | > 100 | > 100 | > 100 | > 100 | –
12 | Nc1c2ccccc2nc2ccc3c(=O)cc(-c4ccccc4)oc3c12 | 2.85 | 4.3 | – | 2.23 | 2.39 | – | 1.35 | – | 3.07 | 2.59 | 3.39 | 2.34 | 0.34 | 2.56 | 3.74 | – | – | 3.52 | –
13 | CC12CCC(C(Nc3cc(C(F)(F)F)cc(C(F)(F)F)c3)C1=O)C2(C)C (centres undefined) | > 100 | > 100 | > 100 | > 100 | > 100 | > 100 | > 100 | > 100 | – | – | > 100 | > 100 | > 100 | > 100 | > 100 | > 100 | > 100 | > 100 | > 100
14 | COc1cccc(/C=C2\CCCc3ccccc3C2=O)c1 | 38 | 26 | 25.8 | 31.3 | > 100 | > 100 | 35.6 | 46.3 | 35 | 43.2 | 33.2 | 32 | 35.5 | 49.3 | 60 | – | 26.8 | 82.6 | –
15 | Cc1cc(C)nc(NS(=O)(=O)c2ccc(NNc3c4ccccc4nc4c(C(=O)Nc5ccc(S(N)(=O)=O)cc5)cccc34)cc2)n1 | > 100 | > 100 | > 100 | 73.3 | > 100 | > 100 | > 100 | > 100 | > 100 | > 100 | > 100 | > 100 | > 100 | > 100 | > 100 | > 100 | > 100 | > 100 | –
16 | Cc1n[nH]c(=O)n1/N=C/c1ccc(F)cc1 | > 100 | > 100 | > 100 | > 100 | > 100 | > 100 | > 100 | – | – | > 100 | > 100 | > 100 | > 100 | – | > 100 | – | > 100 | – | > 100
17 | O=[N+]([O-])c1ccc(N=Nc2c(O)ccc3ccccc23)c([N+](=O)[O-])c1 | > 100 | > 100 | > 100 | > 100 | > 100 | > 100 | > 100 | > 100 | – | > 100 | > 100 | – | > 100 | > 100 | > 100 | > 100 | > 100 | > 100 | > 100
18 | CC(=O)O/C=C1/C[C@H]2[C@@H]3CCC4CC(C(C)=O)CC[C@]4(C)[C@H]3CC[C@]2(C)C1=O (some centres undefined) | > 100 | > 100 | > 100 | > 100 | > 100 | > 100 | – | > 100 | 37.2 | > 100 | > 100 | – | > 100 | > 100 | > 100 | > 100 | > 100 | > 100 | > 100
19 | N#Cc1c(=O)c2ccccc2n2c1[nH]c1ccccc12 | > 100 | > 100 | > 100 | 43.8 | > 100 | > 100 | > 100 | > 100 | > 100 | – | > 100 | > 100 | > 100 | > 100 | > 100 | – | > 100 | > 100 | > 100
20 | N#CC(C#N)=C/C=C(\Sc1c(Cl)c(Cl)nc(Cl)c1Cl)c1ccc(Cl)cc1 | 44.6 | 30.1 | 30 | 68.8 | 37.8 | > 100 | 55.4 | 53.6 | > 100 | > 100 | 37.2 | 41.8 | 25.9 | 67.9 | 47.5 | 27.7 | 43 | 41.2 | –
21 | CCCSc1ccc2[nH]c(/N=C/c3ccccc3)cc2c1 | > 100 | > 100 | 35 | 27.8 | > 100 | 55.9 | 44.5 | > 100 | – | 76.9 | 57 | 46.3 | > 100 | – | > 100 | 20.4 | – | – | 60.1
